“And” between values parts separate entries of the source, which are not always exact repeats. Equal entries are not always repeated. Where two headings read alike, the source gives them in different places.
Tests used:
[1] = target: T1, PLY (Streptococcus pneumoniae serotype 4, UniProt P0C2J9); details: 18 h
[2] = target: T1, PLY; assay type: cell-based; details: 100uM; 18 h
[3] = target: T2, LLO (Listeria monocytogenes serovar 1/2a, UniProt P13128); assay: LDH cytotoxicity assay, THP-1 macrophages, LLO; assay type: cell-based; details: THP-1, LLO 0.5 μg/ml, 100 μM, 18 h
Experimental: (§1) Human monocytic leukemia THP‐1 cells (ATCC TIB‐202) were cultivated in R10 medium and maintained at density of 10^6 cells/ml. For differentiation into macrophages, THP‐1 cells were treated for 48 h with 20 ng/ml of phorbol myristate acetate (Sigma).
Cytotoxicity was determined by measuring the activity of lactate dehydrogenase enzyme released into the culture supernatant using the Cytotoxicity Detection kit (Roche) according to the manufacturer's instructions. The percentage cytotoxicity was calculated by ratio to 100% lysis control (0.1% saponin).

[4] = target: T2, LLO; assay: Cytokine ELISA, THP-1 macrophages stimulated with LLO; assay type: cell-based; details: LLO 0.5 μg/ml, 100uM, 18 h
Experimental: as §1

[5] = target: T1, PLY; assay type: cell-based
[6] = target: SLO (Streptococcus pyogenes serotype M1, UniProt P0C0I3); assay type: cell-based; details: 100uM; 18 h
Sequence of SLO (P0C0I3 34-571 limits assumed): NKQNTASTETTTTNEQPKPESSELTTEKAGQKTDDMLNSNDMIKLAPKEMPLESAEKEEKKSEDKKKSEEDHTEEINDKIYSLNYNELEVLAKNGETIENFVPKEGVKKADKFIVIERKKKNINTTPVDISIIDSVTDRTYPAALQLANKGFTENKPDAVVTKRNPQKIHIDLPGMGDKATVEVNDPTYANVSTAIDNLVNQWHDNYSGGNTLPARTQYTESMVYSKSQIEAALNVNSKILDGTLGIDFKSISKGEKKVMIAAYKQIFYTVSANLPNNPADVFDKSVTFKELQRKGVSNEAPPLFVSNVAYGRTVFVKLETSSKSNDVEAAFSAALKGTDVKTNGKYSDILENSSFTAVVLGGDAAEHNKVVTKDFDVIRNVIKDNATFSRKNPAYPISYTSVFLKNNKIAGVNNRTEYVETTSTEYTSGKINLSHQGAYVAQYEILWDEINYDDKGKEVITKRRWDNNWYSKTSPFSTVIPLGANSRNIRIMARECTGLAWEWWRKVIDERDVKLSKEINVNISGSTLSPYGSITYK

T1 sequence (P0C2J9 whole entry, looked up): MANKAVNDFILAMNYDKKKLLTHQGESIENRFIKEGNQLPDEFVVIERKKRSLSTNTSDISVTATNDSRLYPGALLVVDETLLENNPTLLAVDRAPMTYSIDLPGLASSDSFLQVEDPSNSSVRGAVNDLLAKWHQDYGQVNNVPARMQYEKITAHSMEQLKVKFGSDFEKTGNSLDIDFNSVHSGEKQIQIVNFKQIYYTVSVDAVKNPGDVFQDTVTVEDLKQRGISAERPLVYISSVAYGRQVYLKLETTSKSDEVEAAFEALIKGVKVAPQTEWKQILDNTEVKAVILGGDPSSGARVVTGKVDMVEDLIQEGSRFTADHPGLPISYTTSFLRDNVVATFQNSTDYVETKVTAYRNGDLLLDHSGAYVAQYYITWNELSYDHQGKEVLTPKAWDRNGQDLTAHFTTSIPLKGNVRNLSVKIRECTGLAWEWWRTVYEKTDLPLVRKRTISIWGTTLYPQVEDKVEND
T2 sequence (P13128 25-529): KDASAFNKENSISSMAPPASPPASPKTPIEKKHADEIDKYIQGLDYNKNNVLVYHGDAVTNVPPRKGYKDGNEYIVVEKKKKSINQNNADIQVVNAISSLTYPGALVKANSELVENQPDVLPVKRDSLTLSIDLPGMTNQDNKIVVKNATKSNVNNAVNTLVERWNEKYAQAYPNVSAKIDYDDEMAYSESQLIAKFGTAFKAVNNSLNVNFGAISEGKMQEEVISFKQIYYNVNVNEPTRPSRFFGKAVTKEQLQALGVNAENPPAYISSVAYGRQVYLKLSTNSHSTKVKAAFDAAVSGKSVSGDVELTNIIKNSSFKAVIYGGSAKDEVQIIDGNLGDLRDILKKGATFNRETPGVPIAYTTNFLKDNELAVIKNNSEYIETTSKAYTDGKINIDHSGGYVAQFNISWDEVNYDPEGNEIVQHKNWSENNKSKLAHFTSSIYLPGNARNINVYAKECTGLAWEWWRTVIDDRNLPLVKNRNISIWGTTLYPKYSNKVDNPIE

| Molecule | % cytotoxicity relative to positive control (lysis buffer), LDH ([1]; 100 μM) | % cytotoxicity relative to positive control (lysis buffer), LDH [1] [%] | IL-8 levels in THP-1 macrophages [2] | % cytotoxicity relative to positive control (lysis buffer), LDH ([3]; experiment 1 of 4) [%] | % cytotoxicity relative to positive control (lysis buffer), LDH ([3]; experiment 2 of 4) [%] | % cytotoxicity relative to positive control (lysis buffer), LDH ([3]; experiment 3 of 4) [%] | % cytotoxicity relative to positive control (lysis buffer), LDH ([3]; experiment 4 of 4) [%] | IL-8 levels in THP-1 macrophages ([4]; experiment 1 of 3) [pg/mL] | IL-8 levels in THP-1 macrophages ([4]; experiment 2 of 3) [pg/mL] | IL-8 levels in THP-1 macrophages ([4]; experiment 3 of 3) [pg/mL] | cytolysis by PLY in live imaging [5] | IL-8 levels in THP-1 macrophages [6] |
| --- | --- | --- | --- | --- | --- | --- | --- | --- | --- | --- | --- | --- |
| CC(C)CCC[C@@H](C)[C@H]1CC[C@H]2[C@@H]3CC=C4C[C@@H](O)CC[C@]4(C)[C@H]3CC[C@]12C [CHO, Cholesterol, reference compound] | 27.36% and 42.05% and 42.16% | 35.29 | 104 pg/mL and 72.9 pg/mL and 80.5 pg/mL | 42.88 | 43.52 | 31.62 | 53.89 | 112.8 | 87.2 | 126.9 | protection from PLY induced cytolysis | 79.6 pg/mL and 72.8 pg/mL and 144.9 pg/mL |
| Bovine serum albumin [BSA] | – | – | – | – | – | – | – | – | – | – | cytolysis | – |

From paper PMC7645366 (EMBO Molecular Medicine, 2020)
